We go through 17 compounds from US20230158025A1 (UNIVERSITY OF UTAH RESEARCH FOUNDATION, priority 2020, published 2023).

One data set concerns the target recombinant human GALK1 (Homo sapiens, UniProt P51570). The data set is described as follows: hGALK1 biochemical activity assay (Kinase-Glo Plus, ATP depletion). As to conditions: recombinant human GALK1, Kinase-Glo Plus ATP depletion, bracketed figure in the cell, e.g. (−1.2), is not defined in the text shown; for IC50: read-out: hGALK. Put shortly: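 Recombinant human or mouse GALK1 (5 nM, with 100 μM galactose, in the added enzyme solution) was run with ATP (35 μM in the substrate solution) in HEPES pH 8.0 buffer. Compounds were tested at 11 1/3-step concentrations from 57.4 μM to 0.97 nM. After 1 h at room temperature, remaining ATP was read by Kinase-Glo Plus luminescence.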
A general note: In Kinase-Glo more light means more ATP remaining.

Another data set deals with recombinant mouse GALK1 (Mus musculus, UniProt Q9R0N0). The data set is described as follows: mGALK1 biochemical activity assay (Kinase-Glo Plus, ATP depletion). As to conditions: recombinant mouse GALK1, Kinase-Glo Plus ATP depletion, bracketed figure in the cell, e.g. (−1.2), is not defined in the text shown; for IC50: read-out: mGALK. Put shortly:
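Recombinant GALK1 (5 nM) with 100 μM galactose; GALK1 turnover read as ATP depletion by Kinase-Glo Plus luminescence. Reaction ran 1 h at room temperature before detection reagent was added.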

The nature of another data set: PAMPA permeability. As to conditions: PAMPA. (PAMPA measures passive passage across an artificial lipid membrane.)
Data set [1] is described as follows: aqueous kinetic solubility. As to conditions: aqueous kinetic solubility.
Data set [2] can be described thus: rat microsomal stability (RLM). As to conditions: microsomal stability half-life, minutes.

Chain of recombinant human GALK1 (P51570 whole entry): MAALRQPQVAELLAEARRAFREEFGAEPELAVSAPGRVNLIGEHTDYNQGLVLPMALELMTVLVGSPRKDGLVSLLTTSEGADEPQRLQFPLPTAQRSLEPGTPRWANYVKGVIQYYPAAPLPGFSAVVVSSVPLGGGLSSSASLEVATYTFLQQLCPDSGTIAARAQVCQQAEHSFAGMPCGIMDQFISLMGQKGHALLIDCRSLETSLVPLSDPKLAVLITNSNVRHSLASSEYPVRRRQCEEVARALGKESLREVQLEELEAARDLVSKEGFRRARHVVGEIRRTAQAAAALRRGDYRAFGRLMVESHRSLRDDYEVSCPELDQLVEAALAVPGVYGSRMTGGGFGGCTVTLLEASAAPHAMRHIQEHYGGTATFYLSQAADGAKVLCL
Chain of recombinant mouse GALK1 (Q9R0N0 whole entry): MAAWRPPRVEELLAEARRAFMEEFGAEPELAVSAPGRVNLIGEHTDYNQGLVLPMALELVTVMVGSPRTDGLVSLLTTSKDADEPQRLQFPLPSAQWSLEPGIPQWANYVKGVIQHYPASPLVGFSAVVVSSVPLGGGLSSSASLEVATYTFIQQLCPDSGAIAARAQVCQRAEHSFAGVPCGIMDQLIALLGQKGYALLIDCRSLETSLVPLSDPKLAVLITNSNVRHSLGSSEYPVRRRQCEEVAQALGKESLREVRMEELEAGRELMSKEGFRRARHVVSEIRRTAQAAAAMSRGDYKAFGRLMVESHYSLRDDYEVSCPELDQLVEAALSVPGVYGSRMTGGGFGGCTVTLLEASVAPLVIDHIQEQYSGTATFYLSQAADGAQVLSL

As for `CC1=C(C(=O)Nc2nncs2)C(c2ccccc2Br)N=C(Nc2nc3ccccc3o2)N1` (stereo not shown) [Compound 251, 2-(benzo[d]oxazol-2-ylamino)-4-(2-bromophenyl)-6-methyl-N-(1,3,4-thiadiazol-2-yl)-1,4-dihydropyrimidine-5-carboxamide], the results for the IC50 at recombinant human GALK1 and on recombinant mouse GALK1 were 4.32 µM and 9.68 µM, respectively. The “Perm. (1 × 10^−6 cm/sec)” value in “PAMPA permeability” is listed as 446.9 1 × 10^−6 cm/sec. Besides, the “Sol.” value in data set [1] is less than 1 µg/mL. Further, in data set [2], the “Metab. Stabil. (m)” value was greater than 30 m.

For the compound `CC1=C(C(=O)Nc2nncs2)C2(CCCC2)N=C(Nc2nc3ccccc3o2)N1` [Compound 252, 7-(benzo[d]oxazol-2-ylamino)-9-methyl-N-(1,3,4-thiadiazol-2-yl)-6,8-diazaspiro[4.5]deca-6,9-diene-10-carboxamide], the IC50 at recombinant human GALK1 is 3.85 µM; on recombinant mouse GALK1, 19.3 µM. Further, the “Perm. (1 × 10^−6 cm/sec)” value in “PAMPA permeability” was <1 1 × 10^−6 cm/sec. In addition, the “Sol.” value in data set [1] was less than 1 µg/mL. In addition, in data set [2], the “Metab. Stabil. (m)” value was greater than 30 m.

For `CC1=C(C(=O)Nc2nncs2)C(c2nn(C)cc2Cl)N=C(Nc2nc3ccccc3o2)N1` (stereo not shown) [Compound 253, 2-(benzo[d]oxazol-2-ylamino)-4-(4-chloro-1-methyl-1H-pyrazol-3-yl)-6-methyl-N-(1,3,4-thiadiazol-2-yl)-1,4-dihydropyrimidine-5-carboxamide], the IC50 at recombinant human GALK1 is 7.69 µM; on recombinant mouse GALK1, 17.2 µM. In the data set “PAMPA permeability”, the “Perm. (1 × 10^−6 cm/sec)” value was 746.9 1 × 10^−6 cm/sec. Besides, in data set [1], the “Sol.” value is 12.8 µg/mL. In addition, the “Metab. Stabil. (m)” value in data set [2] was greater than 30 m.

Turning to `CC1=C(C(=O)Nc2nncs2)C(c2n[nH]cc2Cl)N=C(Nc2nc3ccccc3o2)N1` (stereo not shown) [Compound 254, 2-(benzo[d]oxazol-2-ylamino)-4-(4-chloro-1H-pyrazol-3-yl)-6-methyl-N-(1,3,4-thiadiazol-2-yl)-1,4-dihydropyrimidine-5-carboxamide], the IC50 turned out to be 17.2 µM on recombinant human GALK1 and 54.4 µM on recombinant mouse GALK1. In the data set “PAMPA permeability”, the “Perm. (1 × 10^−6 cm/sec)” value was 37.0 1 × 10^−6 cm/sec. Also, in data set [1], the “Sol.” value worked out at 34.6 µg/mL. Also, in data set [2], the “Metab. Stabil. (m)” value is greater than 30 m.

Take `CC1=C(C(=O)Nc2nncs2)C(c2ccncc2Br)N=C(Nc2nc3ccccc3o2)N1` (stereo not shown) [Compound 255, 2-(benzo[d]oxazol-2-ylamino)-4-(3-bromopyridin-4-yl)-6-methyl-N-(1,3,4-thiadiazol-2-yl)-1,4-dihydropyrimidine-5-carboxamide]: the results for the IC50 on recombinant human GALK1 and on recombinant mouse GALK1 were 3.43 µM and 19.3 µM, respectively. The “Perm. (1 × 10^−6 cm/sec)” value in “PAMPA permeability” is on record as 208.7 1 × 10^−6 cm/sec. Moreover, the “Sol.” value in data set [1] was found to be 6.5 µg/mL. Besides, in data set [2], the “Metab. Stabil. (m)” value is recorded as greater than 30 m.

Regarding `CC1=C(C(=O)Nc2nncs2)C(c2ncccc2Cl)N=C(Nc2nc3ccccc3o2)N1` (stereo not shown) [Compound 256, 2-(benzo[d]oxazol-2-ylamino)-4-(3-chloropyridin-2-yl)-6-methyl-N-(1,3,4-thiadiazol-2-yl)-1,4-dihydropyrimidine-5-carboxamide], the IC50 on recombinant human GALK1 amounted to 6.85 µM; at recombinant mouse GALK1, 19.3 µM. The “Perm. (1 × 10^−6 cm/sec)” value in the data set “PAMPA permeability” is reported as 695.3 1 × 10^−6 cm/sec. Besides, in data set [1], the “Sol.” value worked out at 10.6 µg/mL. For the same compound, in data set [2], the “Metab. Stabil. (m)” value is recorded as greater than 30 m.

Take `CC1=C(C(=O)Nc2nncs2)C(c2ncccc2Br)N=C(Nc2nc3ccccc3o2)N1` (stereo not shown) [Compound 257, 2-(benzo[d]oxazol-2-ylamino)-4-(3-bromopyridin-2-yl)-6-methyl-N-(1,3,4-thiadiazol-2-yl)-1,4-dihydropyrimidine-5-carboxamide]: the IC50 is 4.85 µM on recombinant human GALK1 and 6.85 µM at recombinant mouse GALK1. Besides, in “PAMPA permeability”, the “Perm. (1 × 10^−6 cm/sec)” value is listed as 709.3 1 × 10^−6 cm/sec. Besides, the “Sol.” value in data set [1] was found to be 3.0 µg/mL. For the same compound, in data set [2], the “Metab. Stabil. (m)” value was greater than 30 m.

`CC1=C(C(=O)Nc2nncs2)C(c2c(Br)cnn2C)N=C(Nc2nc3ccccc3o2)N1` (stereo not shown) [Compound 258, 2-(benzo[d]oxazol-2-ylamino)-4-(4-bromo-1-methyl-1H-pyrazol-5-yl)-6-methyl-N-(1,3,4-thiadiazol-2-yl)-1,4-dihydropyrimidine-5-carboxamide]: the IC50 at recombinant human GALK1 was 21.7 µM. For the same compound, at recombinant mouse GALK1, the “mGALK (μM)” value is given as “in- active”. Also, the “Perm. (1 × 10^−6 cm/sec)” value in the data set “PAMPA permeability” was 198.3 1 × 10^−6 cm/sec. Further, the “Sol.” value in data set [1] is 38.7 µg/mL. Further, the “Metab. Stabil. (m)” value in data set [2] is on record as greater than 30 m.

With `CC1=C(C(=O)Nc2nncs2)C2(Cc3ccccc32)N=C(Nc2nc3ccccc3o2)N1` (stereo not shown) [Compound 259, 2′-(benzo[d]oxazol-2-ylamino)-6′-methyl-N-(1,3,4-thiadiazol-2-yl)-1′H-spiro[bicyclo[4.2.0]octane-7,4′-pyrimidine]-1,3,5-triene-5′-carboxamide], the “hGALK (μM)” value on recombinant human GALK1 was “in- active”. Also, the “mGALK (μM)” value on recombinant mouse GALK1 is listed as “in- active”. Also, the “Perm. (1 × 10^−6 cm/sec)” value in the data set “PAMPA permeability” was 190.9 1 × 10^−6 cm/sec. In addition, the “Sol.” value in data set [1] stood at 50.9 µg/mL. For the same compound, in data set [2], the “Metab. Stabil. (m)” value is given as greater than 30 m.

On to `CC1=C(C(=O)Nc2nncs2)C2(CCOC2)N=C(Nc2nc3ccccc3o2)N1` (stereo not shown) [Compound 260, 7-(benzo[d]oxazol-2-ylamino)-9-methyl-N-(1,3,4-thiadiazol-2-yl)-2-oxa-6,8-diazaspiro[4.5]deca-6,9-diene-10-carboxamide], for which the IC50 at recombinant human GALK1 worked out at 12.2 µM. On recombinant mouse GALK1, the “mGALK (μM)” value is “in- active”. The “Perm. (1 × 10^−6 cm/sec)” value in “PAMPA permeability” is 102.7 1 × 10^−6 cm/sec. For the same compound, the “Sol.” value in data set [1] is 37.9 µg/mL. The “Metab. Stabil. (m)” value in data set [2] is listed as greater than 30 m.

In the case of `CC1=C(C(=O)Nc2nncs2)C(c2ccc(Cl)cc2Cl)N=C(Nc2nc3ccccc3o2)N1` (stereo not shown) [Compound 261, 2-(benzo[d]oxazol-2-ylamino)-4-(2,4-dichlorophenyl)-6-methyl-N-(1,3,4-thiadiazol-2-yl)-1,4-dihydropyrimidine-5-carboxamide], the IC50 at recombinant human GALK1 is 4.85 µM; on recombinant mouse GALK1, 6.11 µM. Also, the “Perm. (1 × 10^−6 cm/sec)” value in the data set “PAMPA permeability” is listed as <4.9 1 × 10^−6 cm/sec. In addition, the “Sol.” value in data set [1] is less than 1 µg/mL. Also, in data set [2], the “Metab. Stabil. (m)” value is greater than 30 m.

Turning to `CC1=C(C(=O)Nc2nncs2)C(c2cccnc2Br)N=C(Nc2nc3ccccc3o2)N1` (stereo not shown) [Compound 262, 2-(benzo[d]oxazol-2-ylamino)-4-(2-bromopyridin-3-yl)-6-methyl-N-(1,3,4-thiadiazol-2-yl)-1,4-dihydropyrimidine-5-carboxamide], the IC50 at recombinant human GALK1 stood at 13.7 µM; at recombinant mouse GALK1, 19.3 µM. Besides, the “Perm. (1 × 10^−6 cm/sec)” value in “PAMPA permeability” is 185.7 1 × 10^−6 cm/sec. Moreover, the “Sol.” value in data set [1] was determined as 11.1 µg/mL. Also, the “Metab. Stabil. (m)” value in data set [2] was greater than 30 m.

With `CC1=C(C(=O)Nc2nncs2)C(c2ccccc2C(F)(F)F)N=C(Nc2nc3ccccc3o2)N1` (stereo not shown) [Compound 263, 2-(benzo[d]oxazol-2-ylamino)-6-methyl-N-(1,3,4-thiadiazol-2-yl)-4-(2-(trifluoromethyl)phenyl)-1,4-dihydropyrimidine-5-carboxamide], the IC50 at recombinant human GALK1 is 6.85 µM; at recombinant mouse GALK1 it was 12.2 µM. Moreover, in “PAMPA permeability”, the “Perm. (1 × 10^−6 cm/sec)” value was 29.8 1 × 10^−6 cm/sec. Besides, the “Sol.” value in data set [1] was less than 1 µg/mL. In data set [2], the “Metab. Stabil. (m)” value is reported as greater than 30 m.

For `CC1=C(C(=O)Nc2nncs2)C(c2ccc(C)cc2Cl)N=C(Nc2nc3ccccc3o2)N1` (stereo not shown) [Compound 264, 2-(benzo[d]oxazol-2-ylamino)-4-(2-chloro-4-methylphenyl)-6-methyl-N-(1,3,4-thiadiazol-2-yl)-1,4-dihydropyrimidine-5-carboxamide], the IC50 was 3.06 µM on recombinant human GALK1 and 6.11 µM at recombinant mouse GALK1. Besides, in “PAMPA permeability”, the “Perm. (1 × 10^−6 cm/sec)” value is <14.4 1 × 10^−6 cm/sec. Further, the “Sol.” value in data set [1] was less than 1 µg/mL. For the same compound, the “Metab. Stabil. (m)” value in data set [2] is listed as greater than 30 m.

As to `CC1=C(C(=O)Nc2nncs2)C(c2nn(C)cc2Br)N=C(Nc2nc3ccccc3o2)N1` (stereo not shown) [Compound 265, 2-(benzo[d]oxazol-2-ylamino)-4-(4-bromo-1-methyl-1H-pyrazol-3-yl)-6-methyl-N-(1,3,4-thiadiazol-2-yl)-1,4-dihydropyrimidine-5-carboxamide], the figures for the IC50 on recombinant human GALK1 and at recombinant mouse GALK1 were 3.43 µM and 19.3 µM, respectively. Moreover, in the data set “PAMPA permeability”, the “Perm. (1 × 10^−6 cm/sec)” value is listed as 1044.0 1 × 10^−6 cm/sec. In data set [1], the “Sol.” value amounted to 6.4 µg/mL. Besides, the “Metab. Stabil. (m)” value in data set [2] is listed as greater than 30 m.

With `COc1ccc(C2N=C(Nc3nc4ccccc4o3)NC(C)=C2C(=O)Nc2nncs2)c(Cl)c1` (stereo not shown) [Compound 266, 2-(benzo[d]oxazol-2-ylamino)-4-(2-chloro-4-methoxyphenyl)-6-methyl-N-(1,3,4-thiadiazol-2-yl)-1,4-dihydropyrimidine-5-carboxamide], the IC50 worked out at 3.85 µM on recombinant human GALK1 and 5.44 µM on recombinant mouse GALK1. The “Perm. (1 × 10^−6 cm/sec)” value in the data set “PAMPA permeability” was 31.9 1 × 10^−6 cm/sec. In addition, the “Sol.” value in data set [1] was less than 1 µg/mL. For the same compound, the “Metab. Stabil. (m)” value in data set [2] is on record as greater than 30 m.

As to `CC1=C(C(=O)Nc2nncs2)C(c2ccccc2C)N=C(Nc2nc3ccccc3o2)N1` (stereo not shown) [Compound 267, 2-(benzo[d]oxazol-2-ylamino)-6-methyl-N-(1,3,4-thiadiazol-2-yl)-4-(o-tolyl)-1,4-dihydropyrimidine-5-carboxamide], the IC50 at recombinant human GALK1 is 12.2 µM; on recombinant mouse GALK1, 21.7 µM. Also, in “PAMPA permeability”, the “Perm. (1 × 10^−6 cm/sec)” value is 83.8 1 × 10^−6 cm/sec. The “Sol.” value in data set [1] was less than 1 µg/mL. For the same compound, the “Metab. Stabil. (m)” value in data set [2] is on record as greater than 30 m.
